ChEMBL document CHEMBL5726074, “Histone demethylase inhibitors” (2017)

Assays:
[1] = molecular target: Lysine-specific demethylase 5B (Homo sapiens, UniProt Q9UGL1); experiment: Enzymatic Assay: The ability of test compounds to inhibit the activity of Jarid1B was determined in 384-well plate format under the following reaction conditions: 0.8 nM Jarid1B, 300 nM H3K4me3-biotin labeled peptide (Anaspec cat #64357), 2 μM alpha-ketoglutaric acid in assay buffer of 50 mM HEPES, pH7.3, 0.005% Brij35, 0.5 mM TCEP, 0.2 mg/ml BSA, 50 μM sodium L-ascorbate, and 2 μM ammonium iron(II) sulfate. Reaction product was determined quantitatively by TR-FRET after the addition of detection reagent Phycolink Streptavidin-allophycocyanin (Prozyme) and Europium-anti-mono- or di-methylated histone H3 lysine 4 (H3K4me1-2) antibody (PerkinElmer) in the presence of 5 mM EDTA in LANCE detection buffer (PerkinElmer) at a final concentration of 25 nM and 1 nM, respectively.The assay reaction was initiated by the following: 2 μl of the mixture of 900 nM H3K4me3-biotin labeled peptide and 6 μM alpha-ketoglutaric acid with 2 μl of 11-point serial diluted inhibitor in 3% DMSO was added to each well of the plate, followed by the addition of 2 μl of 2.4 nM Jarid1B to initiate the reaction. The reaction mixture was incubated at room temperature for 30 minutes, and terminated by the addition of 6 μl of 5 mM EDTA in LANCE detection buffer containing 50 nM Phycolink Streptavidin-allophycocyanin and 2 nM Europium-anti-H3K4me1-2 antibody. […]
[2] = molecular target: Lysine-specific demethylase 5A (Homo sapiens, UniProt P29375); experiment: Enzymatic Assay: The enzymatic assay of Jarid1A activity is based upon Time Resolved-Fluorescence Resonance Energy Transfer (TR-FRET) detection. The ability of test compounds to inhibit the activity of Jarid1A was determined in 384-well plate format under the following reaction conditions: 1 nM Jarid1A, 300 nM H3K4me3-biotin labeled peptide (Anaspec cat #64357), 2 μM alpha-ketoglutaric acid in …
[3] = molecular target: T1, Lysine-specific demethylase 4C (Homo sapiens, UniProt Q9H3R0); experiment: Enzymatic Assay: The ability of test compounds to inhibit the activity of JMJD2C was determined in 384-well plate format under the following reaction conditions: 0.3 nM JMJD2C, 300 nM H3K9me3-biotin labeled peptide (Anaspec cat #64360), 2 μM alpha-ketoglutaric acid in assay buffer of 50 mM HEPES, pH7.3, 0.005% Brij35, 0.5 mM TCEP, 0.2 mg/ml BSA, 50 μM sodium L-ascorbate, and 2 μM ammonium iron(II) sulfate. Reaction product was determined quantitatively by TR-FRET after the addition of detection reagent Phycolink Streptavidin-allophycocyanin (Prozyme) and Europium-anti-di-methylated histone H3 lysine 9 (H3K9me2) antibody (PerkinElmer) in the presence of 5 mM EDTA in LANCE detection buffer (PerkinElmer) at a final concentration of 50 nM and 1 nM, respectively.The assay reaction was initiated by the following: 2 μl of the mixture of 900 nM H3K9me3-biotin labeled peptide and 6 μM alpha-ketoglutaric acid with 2 μl of 11-point serial diluted inhibitor in 3% DMSO were added to each well of the plate, followed by the addition of 2 μl of 0.9 nM JMJD2C to initiate the reaction. The reaction mixture was incubated at room temperature for 30 minutes, and terminated by the addition of 6 μl of 5 mM EDTA in LANCE detection buffer containing 100 nM Phycolink Streptavidin-allophycocyanin and 2 nM Europium-anti-H3K9me2 antibody. […]
T1 sequence (Q9H3R0 whole entry): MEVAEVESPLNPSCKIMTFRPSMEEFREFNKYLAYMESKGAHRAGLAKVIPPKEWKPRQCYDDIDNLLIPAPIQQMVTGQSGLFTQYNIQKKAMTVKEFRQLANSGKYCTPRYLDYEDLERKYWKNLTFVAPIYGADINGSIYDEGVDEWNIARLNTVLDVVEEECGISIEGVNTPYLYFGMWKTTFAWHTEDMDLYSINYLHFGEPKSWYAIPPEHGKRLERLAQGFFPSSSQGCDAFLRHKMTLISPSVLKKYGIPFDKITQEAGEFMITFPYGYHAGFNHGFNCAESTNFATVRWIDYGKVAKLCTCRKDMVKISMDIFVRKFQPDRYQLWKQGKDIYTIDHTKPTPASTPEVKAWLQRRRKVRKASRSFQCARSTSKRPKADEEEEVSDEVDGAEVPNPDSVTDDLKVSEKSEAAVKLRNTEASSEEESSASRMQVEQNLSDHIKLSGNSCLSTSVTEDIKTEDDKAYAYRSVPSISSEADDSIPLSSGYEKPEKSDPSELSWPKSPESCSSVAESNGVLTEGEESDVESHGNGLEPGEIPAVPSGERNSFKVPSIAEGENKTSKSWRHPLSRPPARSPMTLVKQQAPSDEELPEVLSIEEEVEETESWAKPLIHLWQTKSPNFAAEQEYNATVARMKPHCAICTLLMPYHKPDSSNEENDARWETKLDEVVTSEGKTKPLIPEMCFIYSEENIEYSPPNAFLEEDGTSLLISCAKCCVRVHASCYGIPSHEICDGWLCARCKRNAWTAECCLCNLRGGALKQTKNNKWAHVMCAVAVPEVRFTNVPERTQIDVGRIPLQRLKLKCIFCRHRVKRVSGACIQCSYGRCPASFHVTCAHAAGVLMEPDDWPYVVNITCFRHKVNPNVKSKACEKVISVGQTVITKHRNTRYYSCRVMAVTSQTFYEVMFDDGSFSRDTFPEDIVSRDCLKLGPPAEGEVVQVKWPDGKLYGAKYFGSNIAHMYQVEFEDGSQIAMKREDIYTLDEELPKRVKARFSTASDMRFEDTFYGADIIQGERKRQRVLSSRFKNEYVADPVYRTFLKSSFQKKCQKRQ

Measured: IC50

Lysine-specific demethylase 5B, sequence (Q9UGL1 whole entry): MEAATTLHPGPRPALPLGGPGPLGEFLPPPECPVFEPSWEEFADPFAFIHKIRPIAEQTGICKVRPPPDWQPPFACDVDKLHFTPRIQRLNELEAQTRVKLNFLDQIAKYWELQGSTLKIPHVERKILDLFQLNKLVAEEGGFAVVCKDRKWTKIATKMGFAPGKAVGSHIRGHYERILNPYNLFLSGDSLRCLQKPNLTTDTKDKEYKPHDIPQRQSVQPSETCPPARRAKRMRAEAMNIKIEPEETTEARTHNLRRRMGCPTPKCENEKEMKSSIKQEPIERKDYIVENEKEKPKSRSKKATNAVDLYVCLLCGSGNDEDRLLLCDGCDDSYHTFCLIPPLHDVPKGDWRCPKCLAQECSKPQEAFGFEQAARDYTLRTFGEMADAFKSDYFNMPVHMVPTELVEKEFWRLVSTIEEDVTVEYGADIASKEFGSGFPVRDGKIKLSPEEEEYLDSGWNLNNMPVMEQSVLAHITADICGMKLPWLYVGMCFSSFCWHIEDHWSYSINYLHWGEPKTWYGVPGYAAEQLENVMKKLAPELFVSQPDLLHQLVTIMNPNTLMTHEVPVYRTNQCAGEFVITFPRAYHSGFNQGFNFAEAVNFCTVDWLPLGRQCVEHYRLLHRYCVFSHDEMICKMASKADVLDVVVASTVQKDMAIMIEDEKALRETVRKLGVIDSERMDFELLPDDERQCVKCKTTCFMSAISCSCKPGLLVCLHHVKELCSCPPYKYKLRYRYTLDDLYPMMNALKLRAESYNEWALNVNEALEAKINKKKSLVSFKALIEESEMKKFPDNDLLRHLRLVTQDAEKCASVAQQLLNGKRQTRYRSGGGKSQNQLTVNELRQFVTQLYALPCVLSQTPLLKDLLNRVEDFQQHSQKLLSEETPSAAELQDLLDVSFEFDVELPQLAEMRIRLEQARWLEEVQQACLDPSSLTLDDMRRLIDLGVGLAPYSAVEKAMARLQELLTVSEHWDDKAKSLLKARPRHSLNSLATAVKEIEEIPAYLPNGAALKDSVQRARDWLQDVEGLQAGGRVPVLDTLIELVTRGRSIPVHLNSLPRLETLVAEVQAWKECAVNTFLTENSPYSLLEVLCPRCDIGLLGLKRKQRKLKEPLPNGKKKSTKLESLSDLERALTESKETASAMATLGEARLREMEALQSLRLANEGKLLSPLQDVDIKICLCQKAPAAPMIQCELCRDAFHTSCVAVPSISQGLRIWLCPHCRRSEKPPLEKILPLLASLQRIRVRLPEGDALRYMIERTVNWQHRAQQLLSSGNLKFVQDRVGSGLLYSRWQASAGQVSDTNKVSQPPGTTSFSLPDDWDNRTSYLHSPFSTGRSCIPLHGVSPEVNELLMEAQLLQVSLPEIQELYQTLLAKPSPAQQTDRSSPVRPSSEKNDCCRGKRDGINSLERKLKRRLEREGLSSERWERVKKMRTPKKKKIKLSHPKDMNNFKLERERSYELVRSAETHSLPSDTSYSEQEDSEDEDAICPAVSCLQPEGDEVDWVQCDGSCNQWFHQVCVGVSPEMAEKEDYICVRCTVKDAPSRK
Lysine-specific demethylase 5A, sequence (P29375 whole entry): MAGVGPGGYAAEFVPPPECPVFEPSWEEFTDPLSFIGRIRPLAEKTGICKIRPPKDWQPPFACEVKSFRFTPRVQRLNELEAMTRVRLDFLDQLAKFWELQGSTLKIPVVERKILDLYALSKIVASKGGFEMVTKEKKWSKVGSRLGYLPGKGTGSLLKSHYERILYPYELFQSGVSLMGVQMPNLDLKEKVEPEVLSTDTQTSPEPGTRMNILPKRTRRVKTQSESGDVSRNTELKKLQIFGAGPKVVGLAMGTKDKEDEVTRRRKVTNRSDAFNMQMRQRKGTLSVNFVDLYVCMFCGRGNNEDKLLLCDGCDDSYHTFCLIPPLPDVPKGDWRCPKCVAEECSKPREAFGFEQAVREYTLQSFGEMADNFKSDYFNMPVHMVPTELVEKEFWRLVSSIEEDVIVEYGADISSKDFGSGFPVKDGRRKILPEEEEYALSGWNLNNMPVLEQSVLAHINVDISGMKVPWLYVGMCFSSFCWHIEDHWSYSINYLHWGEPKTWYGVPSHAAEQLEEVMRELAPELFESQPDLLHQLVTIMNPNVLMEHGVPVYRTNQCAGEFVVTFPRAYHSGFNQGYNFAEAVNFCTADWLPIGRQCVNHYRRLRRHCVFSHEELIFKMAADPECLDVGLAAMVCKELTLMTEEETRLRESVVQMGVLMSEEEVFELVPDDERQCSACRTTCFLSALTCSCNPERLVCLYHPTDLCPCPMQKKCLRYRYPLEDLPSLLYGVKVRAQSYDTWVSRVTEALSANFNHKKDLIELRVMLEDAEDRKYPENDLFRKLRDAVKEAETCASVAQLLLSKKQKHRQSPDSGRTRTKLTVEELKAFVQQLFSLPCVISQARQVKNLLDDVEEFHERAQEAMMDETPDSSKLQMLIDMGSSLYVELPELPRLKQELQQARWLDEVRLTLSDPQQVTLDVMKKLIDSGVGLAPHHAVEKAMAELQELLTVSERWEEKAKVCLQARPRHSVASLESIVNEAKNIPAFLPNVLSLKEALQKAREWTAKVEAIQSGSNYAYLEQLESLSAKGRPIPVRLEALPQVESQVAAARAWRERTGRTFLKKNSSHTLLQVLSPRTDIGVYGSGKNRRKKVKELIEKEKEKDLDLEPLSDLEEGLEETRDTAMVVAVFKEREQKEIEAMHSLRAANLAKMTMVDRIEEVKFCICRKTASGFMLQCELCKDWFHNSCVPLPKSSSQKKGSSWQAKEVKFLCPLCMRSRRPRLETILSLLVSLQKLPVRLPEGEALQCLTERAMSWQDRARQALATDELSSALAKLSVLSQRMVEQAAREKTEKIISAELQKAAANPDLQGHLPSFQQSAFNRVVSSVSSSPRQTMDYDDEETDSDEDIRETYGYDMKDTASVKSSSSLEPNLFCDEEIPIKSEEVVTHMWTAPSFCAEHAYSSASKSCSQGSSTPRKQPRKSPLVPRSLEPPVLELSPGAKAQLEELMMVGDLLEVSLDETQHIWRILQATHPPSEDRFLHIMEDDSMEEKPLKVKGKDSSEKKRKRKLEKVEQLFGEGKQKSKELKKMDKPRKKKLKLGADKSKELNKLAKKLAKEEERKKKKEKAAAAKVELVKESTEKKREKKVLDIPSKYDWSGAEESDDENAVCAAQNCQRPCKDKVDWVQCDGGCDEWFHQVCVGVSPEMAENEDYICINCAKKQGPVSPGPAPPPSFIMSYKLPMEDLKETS

O=C(O)c1ccncc1NCC1CCc2ccccc21 (stereo not drawn)
< 0.1 µM: all assays above
